Assay: xn = mol fraction of the nth substance listed

CCN(CC)C(C)=O + O
298.16 K, 101 kPa
Conditions	viscosity [mPa·s]
x2 = 0.065	1.32
x2 = 0.1626	1.56
x2 = 0.255	1.86
x2 = 0.3529	2.26
x2 = 0.4791	2.92
x2 = 0.6036	3.7
x2 = 0.6894	4.22
x2 = 0.7465	4.38
x2 = 0.7702	4.36
x2 = 0.8188	4.2
x2 = 0.9049	2.45

[Br-].[Na+] + OCCO
101 kPa, x1 = 0.142
Conditions	viscosity [mPa·s]
303 K	39.03
313 K	25.16
323 K	17.24

OCc1ccccc1 + OCCO
293.15 K, 101.33 kPa
Conditions	viscosity [mPa·s]
x2 = 0.0946	7.031
x2 = 0.1648	7.627
x2 = 0.1834	7.781
x2 = 0.2979	8.824
x2 = 0.4721	10.98
x2 = 0.5503	12.18
x2 = 0.6255	13.48
x2 = 0.6888	14.69
x2 = 0.7556	16.05
x2 = 0.7929	16.82
x2 = 0.8219	17.42
x2 = 0.8789	18.75
x2 = 0.9113	19.36

C1CCCC1 + CCCO
101.3 kPa
Conditions	viscosity [mPa·s]
298.15 K, x1 = 0.0126	1.899
298.15 K, x1 = 0.0784	1.708
298.15 K, x1 = 0.1149	1.602
298.15 K, x1 = 0.1574	1.49
298.15 K, x1 = 0.1979	1.385
298.15 K, x1 = 0.2531	1.254
298.15 K, x1 = 0.289	1.17
298.15 K, x1 = 0.3309	1.085
298.15 K, x1 = 0.3663	1.017
298.15 K, x1 = 0.3847	0.982
298.15 K, x1 = 0.3986	0.959
298.15 K, x1 = 0.4161	0.924
298.15 K, x1 = 0.4387	0.888
298.15 K, x1 = 0.4706	0.839
298.15 K, x1 = 0.4885	0.807
298.15 K, x1 = 0.5064	0.781
298.15 K, x1 = 0.5132	0.772
298.15 K, x1 = 0.5396	0.739
298.15 K, x1 = 0.5459	0.726
298.15 K, x1 = 0.557	0.709
298.15 K, x1 = 0.563	0.703
298.15 K, x1 = 0.5899	0.673
298.15 K, x1 = 0.6188	0.639
298.15 K, x1 = 0.6413	0.615
298.15 K, x1 = 0.6734	0.587
298.15 K, x1 = 0.7116	0.552
298.15 K, x1 = 0.7421	0.529
298.15 K, x1 = 0.7853	0.497
298.15 K, x1 = 0.8171	0.478
298.15 K, x1 = 0.8537	0.458
298.15 K, x1 = 0.9793	0.412
308.15 K, x1 = 0.0566	1.511
308.15 K, x1 = 0.0958	1.374
308.15 K, x1 = 0.1491	1.257
308.15 K, x1 = 0.1968	1.105
308.15 K, x1 = 0.2217	0.997
308.15 K, x1 = 0.2344	0.927
308.15 K, x1 = 0.2399	0.886
308.15 K, x1 = 0.2558	0.874
308.15 K, x1 = 0.2708	0.851
308.15 K, x1 = 0.2943	0.815
308.15 K, x1 = 0.3274	0.772
308.15 K, x1 = 0.3677	0.719
308.15 K, x1 = 0.4171	0.659
308.15 K, x1 = 0.4901	0.582
308.15 K, x1 = 0.5698	0.516
308.15 K, x1 = 0.6573	0.457
308.15 K, x1 = 0.7599	0.415
308.15 K, x1 = 0.8996	0.392
318.15 K, x1 = 0.0747	1.139
318.15 K, x1 = 0.1126	1.074
318.15 K, x1 = 0.2293	0.876
318.15 K, x1 = 0.2845	0.769
318.15 K, x1 = 0.3533	0.654
318.15 K, x1 = 0.4	0.597
318.15 K, x1 = 0.4414	0.539
318.15 K, x1 = 0.4892	0.491
318.15 K, x1 = 0.4949	0.484
318.15 K, x1 = 0.5432	0.445
318.15 K, x1 = 0.5458	0.443
318.15 K, x1 = 0.5813	0.429
318.15 K, x1 = 0.6285	0.412
318.15 K, x1 = 0.6942	0.407
318.15 K, x1 = 0.7867	0.402
318.15 K, x1 = 0.8912	0.393

O=S(=O)([O-])[O-].[Cu+2] + O
viscosity [mPa·s]
Conditions	308.15 K	313.15 K	323.15 K
101.3 kPa, x1 = 0.00112	0.742	0.673	0.5823
101.3 kPa, x1 = 0.002247	0.7918	0.7176	0.6001
101.3 kPa, x1 = 0.004484	0.8376	0.7579	0.6314
101.3 kPa, x1 = 0.008927	0.9348	0.8476	0.7076
101.3 kPa, x1 = 0.0177	–	0.977	0.817
101.33 kPa, x1 = 0.000905	0.7428	0.6739	0.5628
101.33 kPa, x1 = 0.002718	0.7922	0.7182	0.6005
101.33 kPa, x1 = 0.00453	0.838	0.7585	0.6319
101.33 kPa, x1 = 0.006344	0.8866	0.8013	0.6685
101.33 kPa, x1 = 0.008159	0.9348	0.8482	0.7082

O=CNc1ccccc1 + c1ccncc1
298.15 K, 101 kPa
Conditions	viscosity [mPa·s]
x1 = 0.06989	1.089
x1 = 0.1339	1.335

CCC(=O)CC + COC(=O)c1ccccc1
viscosity [mPa·s], 101 kPa
Conditions	x2 = 0.0869	x2 = 0.176	x2 = 0.2669	x2 = 0.3636	x2 = 0.4616	x2 = 0.5586	x2 = 0.6631	x2 = 0.7718	x2 = 0.8792
303.15 K	0.486	0.557	0.634	0.722	0.822	0.932	1.07	1.235	1.422
313.15 K	0.43	0.485	0.548	0.619	0.7	0.79	0.896	1.025	1.169

OCc1ccccc1 + Cc1ccccc1
viscosity [mPa·s]
Conditions	293.15 K	303.15 K	313.15 K	323.15 K
100 kPa, x1 = 0.1006	0.699	–	–	–
100 kPa, x1 = 0.1997	0.851	–	–	–
100 kPa, x1 = 0.3007	1.051	–	–	–
100 kPa, x1 = 0.402	1.329	–	–	–
100 kPa, x1 = 0.502	1.717	–	–	–
100 kPa, x1 = 0.6	2.158	–	–	–
100 kPa, x1 = 0.6925	2.764	–	–	–
100 kPa, x1 = 0.7994	3.659	–	–	–
100 kPa, x1 = 0.8995	4.821	–	–	–
101 kPa, x2 = 0.0973	–	3.563	2.793	2.117
101 kPa, x2 = 0.1952	–	2.788	2.237	1.73
101 kPa, x2 = 0.2937	–	2.226	1.781	1.403
101 kPa, x2 = 0.3927	–	1.758	1.44	1.157
101 kPa, x2 = 0.4924	–	1.386	1.15	0.9401
101 kPa, x2 = 0.5927	–	1.107	0.9561	0.7918
101 kPa, x2 = 0.6936	–	0.8989	0.7776	0.6576
101 kPa, x2 = 0.7951	–	0.7359	0.6508	0.5456
101 kPa, x2 = 0.8972	–	0.6154	0.5511	0.4771

NCCO + CCCCCCO
viscosity [mPa·s], 101.3 kPa
Conditions	x1 = 0.1	x1 = 0.2	x1 = 0.3	x1 = 0.4	x1 = 0.5	x1 = 0.6	x1 = 0.7	x1 = 0.8	x1 = 0.9
303.15 K	4.07	4.48	5.04	5.68	6.54	7.62	8.84	10.4	12.3
313.15 K	3.08	3.34	3.72	4.15	4.7	5.41	6.17	7.18	8.31
323.15 K	2.37	2.57	2.84	3.13	3.51	3.98	4.49	5.16	5.88

— the CheMixHub viscosity set
